Experimental data: patent US20210261636A1, “NEOANTIGENS EXPRESSED IN MULTIPLE MYELOMA AND THEIR USES” (Janssen Biotech, Inc., priority 2020, published 2021)

B1: TQRLPGHKVSNSCMTGLVLTFTKRDPFHKPVTWCGQLADVRQCMFHSIRERAHPLQRALATLNFFFVSFYTALYLTHPLLTLQTWEVVVTVCFSCWELCVPCDVLRRTCRGQR (peptide)
chain: TQRLPGHKVSNSCMTGLVLTFTKRDPFHKPVTWCGQLADVRQCMFHSIRERAHPLQRALATLNFFFVSFYTALYLTHPLLTLQTWEVVVTVCFSCWELCVPCDVLRRTCRGQR
notes: alternative splicing, BTBD3
B2: RQREVVDLVSPREPSRDRRAGGGDLAARPTGRASVWLLGVSVCTAVCRVSCCAGVSCFLFTGEEGPGYACSESWNSEGRPKWEAIVERTCDMGPYNGMCLQG (peptide)
chain: RQREVVDLVSPREPSRDRRAGGGDLAARPTGRASVWLLGVSVCTAVCRVSCCAGVSCFLFTGEEGPGYACSESWNSEGRPKWEAIVERTCDMGPYNGMCLQG
notes: alternative splicing, CTHRC1
B3: PPTAAASQVRSPTTATGTAAAGSLRAQTSSRATTESTRATGHSSAICAIVPSRAPITWRCT (peptide)
chain: PPTAAASQVRSPTTATGTAAAGSLRAQTSSRATTESTRATGHSSAICAIVPSRAPITWRCT
notes: gene fusion FOSB-> KLF2

Columns and labels:
CD8+ T cells = assay: Exogenous autologous healthy donor restimulation assay, TNFα and IFNγ production by CD8+ T cells; assay type: cell-based, human; design: Frequency (TNFα+ IFNγ+ CD8 T cells): unit not given here; conditions: for Fold change (CD8+) vs. DMSO: maximum CD8+ T-cell response (TNFα and IFNγ); for Fold change (CD8+) vs. DMSO / Frequency (TNFα+ IFNγ+ CD8 T cells): donor independent, peptide pool 10 μg/mL, healthy donors; for Frequency (TNFα+ IFNγ+ CD8 T cells): maximum CD8+ T-cell response; for Immunogenic (yes/no): positive if CD8+ and/or CD4+ double positive TNFα/IFNγ frequency >=3-fold over DMSO and at least 0.01%
Method in brief: (§1)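 CD1c+ DCs from healthy donor PBMCs pulsed 2 h with 15-mer overlapping neoantigen peptide pools (10 μg/mL), irradiated 50 Gy, then co-cultured 12 days with autologous CD3+ T cells plus IL-15/IL-2. Restimulated day 11 with same pools, overnight with protein inhibitor; intracellular TNFα/IFNγ by flow. Positive: ≥3-fold over DMSO and ≥0.01% double-positive.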

CD4+ T cells = assay: Exogenous autologous healthy donor restimulation assay, TNFα and IFNγ production by CD4+ T cells; assay type: cell-based, human; design: Frequency (TNFα+ IFNγ+ CD4 T cells): unit not given here; conditions: donor independent, peptide pool 10 μg/mL, healthy donors; for Fold change (CD4+) vs. DMSO: maximum CD4+ T-cell response (TNFα and IFNγ); for Frequency (TNFα+ IFNγ+ CD4 T cells): maximum CD4+ T-cell response
Method in brief: as §1

Molecule	Fold change (CD8+) vs. DMSO (CD8+ T cells)	Frequency (TNFα+ IFNγ+ CD8 T cells) (CD8+ T cells)	Immunogenic (yes/no) (CD8+ T cells)	Fold change (CD4+) vs. DMSO (CD4+ T cells)	Frequency (TNFα+ IFNγ+ CD4 T cells) (CD4+ T cells)
TAILFTRQQSKALPSLGITNRHGFWAGQGNTVMHGRDSDGKQVKGTVVILAQGAFHQ [AS109, alternative splicing, ADAMTS15]	4.15	0.019	Yes	42.23	0.064
TSTSPKFPVFIFRLVCWVRTELVLR [AS47, alternative splicing, NRG3]	53.5	0.25	Yes	1.907	0.011
TVPASQKLSCSLDPKHLRQFHL [AS30, alternative splicing, BLNK]	13.86	0.082	Yes	2.23	0.012
VAPSGLYYCG [FUS34, gene fusion CLN6-> CALML4]	8.7	0.013	Yes	8.33	0.015
VAPSQSRQEECWRHKMSW [AS42, alternative splicing, LARP1B]	40	0.076	Yes	3.83	0.025
VEDEEKKEAGTHFIHLTGTTVSAGVPEEMPATTLRREVF [AS108, alternative splicing, ACIN1]	1406.07	12.5	Yes	179.31	1.06
VHLDFSSAEMGFPHAAQANVELLGSSDLLT [AS116, alternative splicing, FCRL5]	192.71	1.42	Yes	6.32	0.076
VYYLYKNVAYKGSDID [AS86, alternative splicing, ATP10B]	2.7	0.018	Yes	12.54	0.019
WLLRTWERADSGL [AS123, alternative splicing, PCNX3]	5.371	0.046	No	2.25	0.05
WTRPEKQELNSSCCSLIL [AS120, alternative splicing, NCAM1]	13.03	0.24	Yes	3.71	0.018
YECTGCKTSFPHRSQS [FUS46, gene fusion GCNA-> LOC101059915]	143.71	1.33	Yes	9.3	0.017
YGVYVINQKGHSGCIWSMDGEGRLETAWPVWKRGRCPGKRR [AS15, alternative splicing, B4GALT2]	290	0.029	Yes	2469.136	0.9
B1	17.3	0.77	Yes	7.26	0.025
B2	2700	0.27	Yes	57.613	0.072
B3	37.46	0.056	Yes	6.84	0.002
